Entries after “also recorded” stand apart in the source; their conditions may differ. Values belong to the compound of their own block, whether it stands above or below them. Peptide text beside a SMILES is read from it.
Tests used:
[1] = approximate class bounds given as e.g.; cited from earlier work
[2] = color stability of red 40 in vitamin fortified beverage exposed to light (Examples 39-40); type: physicochemical; details: south facing window, exposure to light
From the text: The mixture is returned to the original container and sealed. The sealed bottle is place in a south facing window for 5-6 weeks or until color changes are noted. Excess beverage is stored refrigerated in glass.

[3] = stabilization of citral in citric acid solution with added uncomplexed cyclodextrin (Example 20); type: physicochemical; details: 0.1 or 0.2 wt % cyclodextrin, 40 or 90 degrees F., 18-48 hours
Procedure: Citral (natural citral, SAP No. 921565, Lot No. 10000223137, available from Citrus & Allied) was cut in ethanol and diluted in citric acid to obtain a desired flavor level (e.g., 3 mL (1% citral in EtOH) per 2 L 0.6% citric acid; designated as “control” or “control freshly made” in Table 2). […] The raw area counts of various forms of citral or character-impact citrus flavor compounds (i.e., neral, geranial, and citral total, the sum of neral and geranial), and a variety of other compounds, including common citrus flavor off-note chemicals (e.g., carveol, p-cymene or p-cymene-8-ol, p,a-dimethyl styrene, mentha-1,5-dien-8-ol 1, and mentha-a,5-dien-8-ol 2) and chlorocyclohexane internal standard (designated as “CCH int std” in Table 2) were measured for each permutation of the experiment, as shown in Table 2. As used herein, the term “raw area counts” is used to refer to the area under the curve of a corresponding portion of a gas chromatogram when the samples are analyzed using a gas chromatography-mass spectrometry analysis, namely, a PEGASUS II Time-of-flight mass spectrometer (TOF-MS; available from LECO Corp., St. Joseph, Mich.). The chlorocyclohexane internal standard was included at 10 ppm per beverage to attempt to normalize the raw area counts of the other compounds of interest.

[4] = stabilization of citral to sunlight, off-notes by SPME GC/TOF-MS (Example 40A); type: physicochemical
From the text: The encapsulated citral products of Example 19 were studied by exposure to summer sun for 7 days as in the above example, but with the goal of monitoring thermal and photo oxidation products using two different concentrations of cyclodextrins. […] The citral complexes were studied at two different concentrations and were designed to deliver a constant citral level when used at 0.1 wt % or 0.2 wt % in acidic beverage base consisting of 10% sucrose and 0.5% citric acid. A 0.1 wt % citral in ethanol was used as a control. 500 ml of each sample was prepared and divided into six (6) four (4) oz samples with no allowed headspace and sealed. Analysis was preformed using SPME and a LECO Pegasus III GC/TOF-MS as previously reported; samples were analyzed in triplicate using a “Latin Square” sampling protocol.

Compound: COC(=O)[C@H](Cc1ccccc1)NC(=O)[C@@H](N)CC(=O)O [aspartame] (H-Asp-Phe-OMe)
log(P) value (class of guest) [1]: less than about 1 but greater than zero

Compound: CSC [dimethyl sulfide]
log(P) value (class of guest) [1]: less than about 1 but greater than zero

Compound: CCc1occc(=O)c1O [ethyl maltol]
log(P) value (class of guest) [1]: less than about 1 but greater than zero

Compound: CC1=C(O)C(=O)C(C)O1 (centres unmarked) [furaneol, 4-hydroxy-2,5-dimethyl-3(2H) furanone]
log(P) value (class of guest) [1]: less than about 1 but greater than zero

color stability (red 40) [2]: degrades upon exposure to light
Compound: COc1cc(S(=O)(=O)[O-])c(C)cc1N=Nc1c(O)ccc2cc(S(=O)(=O)[O-])ccc12.[Na+].[Na+] [red 40 color]

Compound: OC[C@H]1O[C@@H]2O[C@H]3[C@H](O)[C@@H](O)[C@@H](O[C@H]4[C@H](O)[C@@H](O)[C@@H](O[C@H]5[C@H](O)[C@@H](O)[C@@H](O[C@H]6[C@H](O)[C@@H](O)[C@@H](O[C@H]7[C@H](O)[C@@H](O)[C@@H](O[C@H]1[C@H](O)[C@H]2O)O[C@@H]7CO)O[C@@H]6CO)O[C@@H]5CO)O[C@@H]4CO)O[C@@H]3CO [α-cyclodextrin]
amount of off-notes formed vs control [3]: off-note formation is inhibited

Compound: OC[C@H]1O[C@@H]2O[C@H]3[C@H](O)[C@@H](O)[C@@H](O[C@H]4[C@H](O)[C@@H](O)[C@@H](O[C@H]5[C@H](O)[C@@H](O)[C@@H](O[C@H]6[C@H](O)[C@@H](O)[C@@H](O[C@H]7[C@H](O)[C@@H](O)[C@@H](O[C@H]8[C@H](O)[C@@H](O)[C@@H](O[C@H]1[C@H](O)[C@H]2O)O[C@@H]8CO)O[C@@H]7CO)O[C@@H]6CO)O[C@@H]5CO)O[C@@H]4CO)O[C@@H]3CO [β-cyclodextrin]
amount of citral in the solution vs control [3]: increased the amount of citral in the solution
amount of off-notes formed vs control [3]: off-note formation is inhibited; also recorded: decreased the amount of off-notes formed

color stability (red 40) [2]: superior color stability
color stability (red 40) ([2]; listed as hydroxyl propyl β-cyclodextrin): best
Compound: hydroxypropyl-β-cyclodextrin
preventing flavor offnotes, compared with β-cyclodextrin [4]: less effective than β-cyclodextrin in preventing flavor offnotes

Reference: patent US20100160623A1, “CYCLODEXTRIN INCLUSION COMPLEXES AND METHODS OF PREPARING SAME” (CARGILL, INCORPORATED, priority 2006, published 2010)
